US20250230171A1 (MOMA Therapeutics, Inc., priority 2023, published 2025)
Where two headings read alike, the source gives them in different places.

Legend:
[1] = biological target: biotinylated Avi-POLθ[2-894] (Homo sapiens (Human), UniProt O75417); assay: POLθ ATPase assay (ADP-Glo); details: n=2, read-out: Biochemical ATPase ADPGlo IC50
[2] = system: DLD1 BRCA2 (−/−) cells; assay: 7-day cell viability assay (CellTiter-Glo), DLD1 BRCA2 (−/−); format: cell-based, human; details: n=2, read-out: Viability IC50 (uM) DLD1 BRCA2 null
How it was run: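 7-day growth assay in DLD1 cells with or without BRCA2; seeding densities chosen to keep log-linear growth. Compound: 10 uM top, 3-fold, 9 points. Endpoint: CTG ATP luminescence at RT.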

[3] = system: DLD1 WT cells; assay: 7-day cell viability assay (CellTiter-Glo), DLD1 parental (WT); format: cell-based, human; details: n=2
[4] = Homo sapiens, DLD-1, 168 h, 7-day viability
[5] = Homo sapiens, DLD-1, 168 h, 7-day CellTiter-Glo

biotinylated Avi-POLθ[2-894], sequence (O75417 2-894): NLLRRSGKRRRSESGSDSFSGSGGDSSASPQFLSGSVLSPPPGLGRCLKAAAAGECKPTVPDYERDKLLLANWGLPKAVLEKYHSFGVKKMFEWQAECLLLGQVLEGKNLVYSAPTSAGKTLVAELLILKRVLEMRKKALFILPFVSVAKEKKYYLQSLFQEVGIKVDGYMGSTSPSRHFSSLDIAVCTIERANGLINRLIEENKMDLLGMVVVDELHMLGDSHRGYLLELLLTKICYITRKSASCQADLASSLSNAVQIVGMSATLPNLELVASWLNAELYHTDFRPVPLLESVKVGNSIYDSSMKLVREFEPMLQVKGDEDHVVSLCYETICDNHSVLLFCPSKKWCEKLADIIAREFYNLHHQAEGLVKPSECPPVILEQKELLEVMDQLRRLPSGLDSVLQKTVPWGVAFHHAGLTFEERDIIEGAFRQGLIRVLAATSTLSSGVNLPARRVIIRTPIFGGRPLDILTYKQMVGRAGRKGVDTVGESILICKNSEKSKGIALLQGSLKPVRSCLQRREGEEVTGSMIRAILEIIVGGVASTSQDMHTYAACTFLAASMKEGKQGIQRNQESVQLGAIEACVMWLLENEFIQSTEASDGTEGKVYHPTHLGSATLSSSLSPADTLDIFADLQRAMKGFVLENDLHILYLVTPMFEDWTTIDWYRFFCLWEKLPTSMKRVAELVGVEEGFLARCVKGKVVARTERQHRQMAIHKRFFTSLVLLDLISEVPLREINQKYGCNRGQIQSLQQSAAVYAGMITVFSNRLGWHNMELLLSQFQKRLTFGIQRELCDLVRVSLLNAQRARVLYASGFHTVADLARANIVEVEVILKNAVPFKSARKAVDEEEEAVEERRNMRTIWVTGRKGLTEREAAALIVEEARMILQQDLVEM

## COc1cnc(Cl)cc1-c1cc(C)ncc1C(=O)Nc1nc2c(s1)CN(C(=O)C1CCC(OC(F)F)C1)C2 (stereo not drawn)
[1]
  IC50: 1 to 15 nM
[2]; [4]
  IC50: 0.001 to 0.1 µM
[3]; [4]
  IC50: ≥ 10 µM

## COc1cnc(Cl)cc1-c1cc(C)ncc1C(=O)Nc1nc2c(s1)CN(C(=O)c1cc(C)nn1C(F)F)C2
[1]
  IC50: 1 to 15 nM
[2]; [4]
  IC50: 0.1 to 0.25 µM
[3]; [4]
  IC50: ≥ 10 µM

## COc1cn2cncc2cc1-c1cc(C)ncc1C(=O)Nc1nc2c(s1)CN(C(=O)c1c(Cl)cnn1C)C2
[1]
  IC50: 1 to 15 nM
[2]; [4]
  IC50: 0.1 to 0.25 µM
[3]; [4]
  IC50: ≥ 10 µM

## COc1cnc(Cl)cc1-c1cc(C)ncc1C(=O)Nc1nc2c(s1)CN(C(=O)[C@@H]1CCCOC1)C2
[1]
  IC50: 1 to 15 nM
[2]; [4]
  IC50: 0.5 to 2 µM
[3]; [4]
  IC50: ≥ 10 µM

## COc1cnc(Cl)cc1-c1cc(C)ncc1C(=O)Nc1nc2c(s1)CN(C(=O)c1ccncc1)C2
[1]
  IC50: 1 to 15 nM
[2]; [4]
  IC50: 0.25 to 0.5 µM
[3]; [4]
  IC50: ≥ 10 µM

## COc1cnc(Cl)cc1-c1cc(C)ncc1C(=O)Nc1nc2c(s1)CN(C(=O)c1cn(C)nc1OC)C2
[1]
  IC50: 1 to 15 nM
[2]; [4]
  IC50: 0.25 to 0.5 µM
[3]; [4]
  IC50: ≥ 10 µM

## COc1ccc(C#N)cc1-c1cc(C)ncc1C(=O)Nc1nc2c(s1)CN(C(=O)C1CC(CC(F)F)C1)C2 (stereo not drawn)
[1]
  IC50: 1 to 15 nM
[2]; [4]
  IC50: 0.5 to 2 µM
[3]; [4]
  IC50: ≥ 10 µM

## COc1ccc(C#N)cc1-c1cc(C)ncc1C(=O)Nc1nc2c(s1)CN(C(=O)[C@H]1C[C@@H](C#N)C1)C2
[1]
  IC50: 1 to 15 nM
[2]; [4]
  IC50: ≥ 2 µM
[3]; [4]
  IC50: ≥ 10 µM

## COc1ccc(C#N)cc1-c1cc(C)ncc1C(=O)Nc1nc2c(s1)CN(C(=O)c1ccncc1C)C2
[1]
  IC50: 1 to 15 nM
[2]; [4]
  IC50: ≥ 2 µM
[3]; [4]
  IC50: ≥ 10 µM

## COc1ccc(C#N)cc1-c1cc(C)ncc1C(=O)Nc1nc2c(s1)CN(C(=O)c1ccnc(C)c1)C2
[1]
  IC50: 1 to 15 nM
[2]; [4]
  IC50: ≥ 2 µM
[3]; [4]
  IC50: ≥ 10 µM

## COc1cnc(Cl)cc1-c1cc(C)ncc1C(=O)Nc1nc2c(s1)CN(C(=O)c1ccccn1)C2
[1]
  IC50: 1 to 15 nM
[2]; [4]
  IC50: 0.1 to 0.25 µM
[3]; [4]
  IC50: ≥ 10 µM

## COc1ccc(C#N)cc1-c1cc(C)ncc1C(=O)Nc1nc2c(s1)CN(C(=O)c1cc(C)ccn1)C2
[1]
  IC50: 1 to 15 nM
[2]; [4]
  IC50: 0.5 to 2 µM
[3]; [4]
  IC50: ≥ 10 µM

## COc1cnc(Cl)cc1-c1cc(C)ncc1C(=O)Nc1nc2c(s1)CN(C(=O)c1ncc(Cl)cc1OC)C2
[1]
  IC50: 1 to 15 nM
[2]; [4]
  IC50: 0.001 to 0.1 µM
[3]; [4]
  IC50: ≥ 10 µM

## COc1cnc(Cl)cc1-c1cc(C)ncc1C(=O)Nc1nc2c(s1)CN(C(=O)c1ncc(C(F)F)cc1Cl)C2
[1]
  IC50: 1 to 15 nM
[2]; [4]
  IC50: 0.1 to 0.25 µM
[3]; [4]
  IC50: ≥ 10 µM

## COc1cnc(Cl)cc1-c1cc(C)ncc1C(=O)Nc1nc2c(s1)CN(C(=O)c1cccc3ccnn13)C2
[1]
  IC50: 1 to 15 nM
[2]; [4]
  IC50: 0.001 to 0.1 µM
[3]; [4]
  IC50: ≥ 10 µM

## COc1cnc(Cl)cc1-c1cc(C)ncc1C(=O)Nc1nc2c(s1)CN(C(=O)c1c(Cl)cnn1C(C)C)C2
[1]
  IC50: 1 to 15 nM
[2]; [4]
  IC50: 0.001 to 0.1 µM
[3]; [4]
  IC50: ≥ 10 µM

## COc1cnc(Cl)cc1-c1cc(C)ncc1C(=O)Nc1nc2c(s1)CN(C(=O)c1cnn(C)c1Cl)C2
[1]
  IC50: 1 to 15 nM
[2]; [4]
  IC50: 0.001 to 0.1 µM
[3]; [4]
  IC50: ≥ 10 µM

## 2′-chloro-N-(5-(6- (difluoromethoxy)nicotinoyl)-5,6- dihydro-4H-pyrrolo[3,4-d]thiazol-2-yl)- 5′-methoxy-6-methyl-[4,4′-bipyridine]- 3-carboxamide [Example 32]
[1]
  IC50: 1 to 15 nM
[2]; 7-day viability
  IC50: 0.001 to 0.1 µM
[3]; 7-day viability
  IC50: 2 to 5 µM

## 4-(5-Cyano-2-methoxyphenyl)-N-(5-(4-(difluoromethyl)-2-methoxybenzoyl)-5,6-dihydro-4H-pyrrolo[3,4-d]thiazol-2-yl)-6-methylnicotinamide [Example 481]
[1]; POLθ ATPase, ADP-Glo
  IC50: 1 to 15 nM
[2]; 7-day CellTiter-Glo
  IC50: 0.001 to 0.1 µM
[3]; 7-day CellTiter-Glo
  IC50: ≥ 10 µM

## COc1cnc(Cl)cc1-c1cc(C)ncc1C(=O)Nc1nc2c(s1)CN(C(=O)C1CC(C(F)F)C1)C2 (mixture of isomers) [Example 201]
[1]
  IC50: 1 to 15 nM
[2]; [4]
  IC50: 0.1 to 0.25 µM
[3]; [4]
  IC50: ≥ 10 µM

## COc1cnc(Cl)cc1-c1cc(C)ncc1C(=O)Nc1nc2c(s1)CN(C(=O)c1c(C(F)F)cnn1C)C2 (racemic)
[1]
  IC50: 1 to 15 nM
[2]; [4]
  IC50: 0.001 to 0.1 µM
[3]; [4]
  IC50: ≥ 10 µM

## COc1cnc(Cl)cc1-c1cc(C)ncc1C(=O)Nc1nc2c(s1)CN(C(=O)c1cnn(C(F)F)c1)C2 (racemic)
[1]
  IC50: 1 to 15 nM
[2]; [4]
  IC50: 0.001 to 0.1 µM
[3]; [4]
  IC50: 0.001 to 0.5 µM

## COc1ccccc1-c1cc(C)ncc1C(=O)Nc1nc2c(s1)CN(C(=O)C1CC(OC(F)F)C1)C2 (racemic)
[1]
  IC50: 1 to 15 nM
[2]; [4]
  IC50: 0.25 to 0.5 µM
[3]; [4]
  IC50: ≥ 10 µM

## COc1ccc(C#N)cc1-c1cc(C)ncc1C(=O)Nc1nc2c(s1)CN(C(=O)c1cccnc1OC)C2 (racemic) [Example 127]
[1]
  IC50: 1 to 15 nM
[2]; [4]
  IC50: 0.001 to 0.1 µM
[3]; [4]
  IC50: ≥ 10 µM

## COc1cnc(Cl)cc1-c1cc(C)ncc1C(=O)Nc1nc2c(s1)CN(C(=O)C1CCCC(OC)C1)C2 (racemic) [Example 128, (Racemic) 2′-chloro-5′-methoxy-N-(5-(3-methoxycyclohexane-1-carbonyl)-5,6-dihydro-4H-pyrrolo[3,4-d]thiazol-2-yl)-6-methyl-[4,4′-bipyridine]-3-carboxamide]
[1]
  IC50: 1 to 15 nM
[2]; [4]
  IC50: 0.001 to 0.1 µM
[3]; [4]
  IC50: ≥ 10 µM

## COc1cnc(Cl)cc1-c1cc(C)ncc1C(=O)Nc1nc2c(s1)CN(C(=O)c1nn(C)cc1Cl)C2 (racemic) [Example 152, (Racemic)-4-(5-Cyano-2-methoxyphenyl)-6-methyl-N-(6-(phenylamino)-4,5,6,7-tetrahydrobenzo[d]thizaol-2-yl)nicotinamide]
[1]
  IC50: 1 to 15 nM
[2]; [4]
  IC50: 0.1 to 0.25 µM
[3]; [4]
  IC50: ≥ 10 µM

## COc1ccc(C#N)cc1-c1cc(C)ncc1C(=O)Nc1nc2c(s1)CN(C(=O)C1CC(OC(C)C)C1)C2 (racemic) [Example 166]
[1]
  IC50: 1 to 15 nM
[2]; [4]
  IC50: 0.25 to 0.5 µM
[3]; [4]
  IC50: ≥ 10 µM

## COc1cnc(Cl)cc1-c1cc(C)ncc1C(=O)Nc1nc2c(s1)CN(C(=O)C1CCC(OC(F)(F)F)C1)C2 (racemic) [Example 397, (Racemic) 2′-chloro-5′-methoxy-6-methyl-N-(5-(3-(trifluoromethoxy)cyclopentane-1-carbonyl)-5,6-dihydro-4H-pyrrolo[3,4-d]thiazol-2-yl)-[4,4′-bipyridine]-3-carboxamide]
[1]; POLθ ATPase, ADP-Glo
  IC50: 1 to 15 nM
[2]; [5]
  IC50: 0.001 to 0.1 µM
[3]; [5]
  IC50: ≥ 10 µM

## COc1cnc(Cl)cc1-c1cc(C)ncc1C(=O)Nc1nc2c(s1)CN(C(=O)c1ccc(C(F)(F)F)nc1OC)[C@H]2C (single isomer, unassigned) [Example 1041, (S or R)-2′-chloro-5′-methoxy-N-(5-(2-methoxy-6-(trifluoromethyl)nicotinoyl)-4-methyl-5,6-dihydro-4H-pyrrolo[3,4-d]thiazol-2-yl)-6-methyl-[4,4′-bipyridine]-3-carboxamide]
[1]; POLθ ATPase, ADP-Glo
  IC50: 1 to 15 nM
[2]; [5]
  IC50: 0.001 to 0.1 µM
[3]; [5]
  IC50: ≥ 10 µM

## COc1cnc(Cl)cc1-c1cc(C)ncc1C(=O)Nc1nc2c(s1)C(C)N(C(=O)c1ccc(C(F)(F)F)nc1OC)C2 (single isomer, unassigned) [Example 1046, (R or S)-2′-chloro-5′-methoxy-N-(5-(2-methoxy-6-(trifluoromethyl)nicotinoyl)-6-methyl-5,6-dihydro-4H-pyrrolo[3,4-d]thiazol-2-yl)-6-methyl-[4,4′-bipyridine]-3-carboxamide]
[1]; POLθ ATPase, ADP-Glo
  IC50: 1 to 15 nM
[2]; [5]
  IC50: 0.001 to 0.1 µM
[3]; [5]
  IC50: ≥ 10 µM

## COc1cnc(Cl)cc1-c1cc(C)ncc1C(=O)Nc1nc2c(s1)CN(C(=O)C1CCC(OC(F)F)CC1)C2 (stereo not drawn) [Example 2, (Cis and Trans) 2′-chloro-N-(5-(4-(difluoromethoxy)cyclohexane-1-carbonyl)-5,6-dihydro-4H-pyrrolo[3,4-d]thiazol-2-yl)-5′-methoxy-6-methyl-[4,4′-bipyridine]-3-carboxamide]
[1]
  IC50: 1 to 15 nM
[2]; [4]
  IC50: 0.001 to 0.1 µM
[3]; [4]
  IC50: ≥ 10 µM

## COc1cnc(Cl)cc1-c1cc(C)ncc1C(=O)Nc1nc2c(s1)CN(C(=O)[C@@H]1C[C@H]1C(F)F)C2 [Example 3, 2′-chloro-N-(5-((1R,2R)-2-(difluoromethyl)cyclopropane-1-carbonyl)-5,6-dihydro-4H-pyrrolo[3,4-d]thiazol-2-yl)-5′-methoxy-6-methyl-[4,4′-bipyridine]-3-carboxamide]
[1]
  IC50: 1 to 15 nM
[2]; [4]
  IC50: 0.001 to 0.1 µM
[3]; [4]
  IC50: 2 to 5 µM

## COc1cnc(Cl)cc1-c1cc(C)ncc1C(=O)Nc1nc2c(s1)CN(C(=O)c1cnn3c1CCC3)C2 [Example 4, 2′-chloro-N-(5-(5,6-dihydro-4H-pyrrolo[1,2-b]pyrazole-3-carbonyl)-5,6-dihydro-4H-pyrrolo[3,4-d]thiazol-2-yl)-5′-methoxy-6-methyl-[4,4′-bipyridine]-3-carboxamide]
[1]
  IC50: 1 to 15 nM
[2]; [4]
  IC50: 0.001 to 0.1 µM
[3]; [4]
  IC50: 0.001 to 0.5 µM

## COc1cnc(Cl)cc1-c1cc(C)ncc1C(=O)Nc1nc2c(s1)CN(C(=O)c1c(C)nn(C)c1Cl)C2 [Example 5, 2′-chloro-N-(5-(5-chloro-1,3-dimethyl-1H-pyrazole-4-carbonyl)-5,6-dihydro-4H-pyrrolo[3,4-d]thiazol-2-yl)-5′-methoxy-6-methyl-[4,4′-bipyridine]-3-carboxamide]
[1]
  IC50: 1 to 15 nM
[2]; [4]
  IC50: 0.001 to 0.1 µM
[3]; [4]
  IC50: ≥ 10 µM

## COc1cnc(Cl)cc1-c1cc(C)ncc1C(=O)Nc1nc2c(s1)CN(C(=O)c1c(C)nn(C)c1C(F)F)C2 [Example 6, 2′-chloro-N-(5-(5-(difluoromethyl)-1,3-dimethyl-1H-pyrazole-4-carbonyl)-5,6-dihydro-4H-pyrrolo[3,4-d]thiazol-2-yl)-5′-methoxy-6-methyl-[4,4′-bipyridine]-3-carboxamide]
[1]
  IC50: 1 to 15 nM
[2]; [4]
  IC50: 0.001 to 0.1 µM
[3]; [4]
  IC50: ≥ 10 µM
